Values quoted from earlier work, collected in US6685969B2, “Treatment for ectoparasites” (Schering-Plough HealthCare Products, Inc., priority 2001, dated 2004).

Tested on: Head Lice
Settings: comparison of published results

CC1(C)C(C=C(Cl)Cl)C1C(=O)OCc1cccc(Oc2ccccc2)c1 (stereo not shown) [Permethrin]
Evidence of efficacy among topical pesticidal treatments: sufficient evidence of efficacy
